System: mEpiSCs
Experiment: mEpiSC conversion culture in first conversion media with Smad inhibitor
Format: cell-based, mouse
Conditions: 1 μM on Day 0, 3 μM from Days 1-3; observed Conversion Day 1
Experimental: Under the conditions tested, the conversion bias toward floating iBCs was less efficient; therefore, more cells were required than for the 3D hemispheres (discussed in example above) in order to observe or harvest iBCs. It is contemplated that optimization of timing and Smad inhibition may vary depending on the cell type used. […] Two phases of media were prepared and cells were fed from days 0-3 (“first conversion media”) and then days 4-7 (“second conversion media”), respectively.
At Conversion Day 0, approximately 14 hours after preparation of mEpiSCs for conversion, cells were observed as evenly dispersed, mostly single cells. The first conversion media was prepared using CTSFES media with Pen/Strep and 2-Mercaptoethanol described above as the base media and supplemented with BMP4 (10 ng/mL), SB431542 (1 μM on Day 0, 3 μM from Days 1-3), and AA (64 μg/mL). On Conversion Day 1, cells were observed growing with some cells remaining colony-like while others began to flatten at the edges. (FIG. 4). […] At approximately the same time each day, media was replaced and cells were incubated overnight at 37° C.

NC(=O)c1ccc(-c2nc(-c3ccc4c(c3)OCO4)c(-c3ccccn3)[nH]2)cc1 [SB431542]
toxicity to starting mEpiSCs: toxicity was also believed to be killing some cells

— patent US20210189330A1, “INDUCED TOTIPOTENT STEM CELLS AND METHODS FOR MAKING AND USING THE SAME” (THE J. DAVID GLADSTONE INSTITUTES, A TESTAMENTARY TRUST …, priority 2017, published 2021)
